Laboratory results from PubChem BioAssay AID467 (The Scripps Research Institute Molecular Screening Center, 2006).
The source made the active and inactive calls. No rule for the calls is given here.

Tested on: parental cell line counter screen, S1P1 agonist assay readout
Assay: signal in parental cells, counter-screen for S1P1 agonist project (AID 467);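 also: agonist potency measured against forskolin stimulation plus an EC20 level of SEW2871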

`O=S(=O)(c1cccs1)N1CCN(CC(O)COc2cc(Cl)ccc2Cl)CC1` (stereo not drawn) was tested, and the EC50 was 24.6 µM (inactive).
For `Cc1n[nH]c(C)c1N1C(=O)c2cccc3c(N4CCCCCC4)ccc(c23)C1=O`, the EC50 was 37 µM (inactive).
In the case of `Cc1cc(N2CCN(C/C=C/c3ccccc3)CC2)n2ncnc2n1`, the EC50 is reported as > 95.1 µM (inactive).
For `Cc1ccc(N2C(=O)c3cccc4c(N5CCN(C)CC5)ccc(c34)C2=O)c2cccnc12`, the EC50 was > 95.1 µM (inactive).
In the case of `COc1cc2c(cc1OC)C(C)N(C(=O)c1cc3ccccc3o1)CC2` (stereo not drawn), the EC50 is reported as > 95.1 µM (inactive).
With `COc1ccc(S(=O)(=O)Cc2ccc(C(=O)N3CCN(c4cccc(C)c4C)CC3)o2)cc1` the EC50 was > 30 µM (inactive).
`COc1ccc(N=c2scc(-c3ccc(S(=O)(=O)N4CCOCC4)cc3)n2CCCO)cc1` was tested, and the EC50 was > 30 µM (inactive).
With `Fc1ccc(COc2ccc(/C=N/n3cnnc3)cc2)cc1` the EC50 was > 95.1 µM (inactive).
In the case of `CCOC(=O)c1oc2cc(O)c(CC)cc2c(=O)c1-c1ccc2c(c1)OCCO2`, the EC50 is reported as > 30 µM (inactive).
With `Cc1cc(C(=O)CSc2nc3ccccc3c(=O)n2C)c(C)n1Cc1ccc2c(c1)OCO2` the EC50 was 54.9 µM (inactive).
In the case of `O=C(C1CCCN1S(=O)(=O)c1cccc2cccnc12)N1CCN(c2ccccc2)CC1` (stereo not drawn), the EC50 is reported as > 95.1 µM (inactive).
In the case of `CCc1ccc(NC(=O)c2cc(-c3ccco3)on2)cc1`, the EC50 is reported as > 95.1 µM (inactive).
With `Cc1noc(C)c1S(=O)(=O)N(CC(=O)Nc1ccc2c(c1)OCCO2)c1ccc(C(C)C)cc1` the EC50 was > 95.1 µM (inactive).
In the case of `Cc1ccc(S(=O)(=O)n2nc(C)c(Br)c2C)c(C)c1C`, the EC50 is reported as > 95.1 µM (inactive).
`Cc1noc(/C=C/N(C)C)c1S(=O)(=O)N1CCN(c2ccccc2)CC1` was tested, and the EC50 was > 95.1 µM (inactive).
For `O=C(Nc1ccc(N2CCCCC2)c(Cl)c1)c1ncn[nH]1`, the EC50 was > 95.1 µM (inactive).
`CN(C)S(=O)(=O)c1ccc(C(=O)Nc2nc(-c3cccs3)cs2)cc1` was tested, and the EC50 was > 95.1 µM (inactive).
With `O=C(NCc1ccccc1)N1CCN(c2ccc(Cl)c(Cl)c2)CC1` the EC50 was > 95.1 µM (inactive).
With `COc1ccc(CNC(=O)c2cc3c(C)nc4ccccc4c3o2)c(OC)c1` the EC50 was > 95.1 µM (inactive).
`CCOc1ccc(C(C)=O)cc1N1C(=O)C2C3C=CC(O3)C2C1=O` (stereo not drawn) was tested, and the EC50 was 4.31 µM.
With `C=CCn1c(SCC(=O)c2cccs2)nc2sc(CC)cc2c1=O` the EC50 was 58.6 µM (inactive).
With `CCOc1ccc(-c2nc(-c3ccncc3)no2)cc1OCC` the EC50 was > 95.1 µM (inactive).
For `COc1ccc(-n2c(C)c(C(C)=O)c3cc(O)ccc32)cc1`, the EC50 was > 95.1 µM (inactive).
With `COCCn1c(C)cc(C(=O)CSc2nc3ccccc3c(=O)[nH]2)c1C` the EC50 was > 95.1 µM (inactive).
In the case of `Clc1ccc(CCNc2ncnc3nc[nH]c23)cc1`, the EC50 is reported as 33.6 µM (inactive).
For `Clc1ccc(OCc2nnc(-c3ccccc3Br)o2)c(Cl)c1`, the EC50 was > 95.1 µM (inactive).
For `CNc1oc(-c2ccc(OCc3ccccc3)cc2)nc1C#N`, the EC50 was > 95.1 µM (inactive).
In the case of `O=C(Nc1ccc(N2CCCC2)c(Cl)c1)c1ccc(Br)o1`, the EC50 is reported as > 95.1 µM (inactive).
With `N#CCCS(=O)(=O)c1nnnn1-c1ccccc1` the EC50 was 1.34 µM.
For `CC(C)c1cc(C(=O)N2CCN(C(c3ccccc3)c3ccccc3)CC2)no1`, the EC50 was > 95.1 µM (inactive).
For `CC1CCN(S(=O)(=O)c2ccc3c(c2)oc(=O)n3CC(=O)NCc2ccc3c(c2)OCO3)CC1`, the EC50 was > 30 µM (inactive).
For `O=C(CCC(=O)N(Cc1ccco1)C(C(=O)NC1CCCC1)c1ccncc1)Nc1cccnc1` (stereo not drawn), the EC50 was > 95.1 µM (inactive).
In the case of `O=C(Nc1nccs1)c1ccc(S(=O)(=O)NCC2CCCCC2)cc1`, the EC50 is reported as > 30 µM (inactive).
In the case of `CCSc1nnc(NC(=O)C(Cc2ccccc2)n2cccc2)s1` (stereo not drawn), the EC50 is reported as > 95.1 µM (inactive).
In the case of `Cc1ccc(-c2nc(CSCC(=O)N3CCN(c4ccccn4)CC3)c(C)o2)cc1`, the EC50 is reported as > 30 µM (inactive).
Compound `O=S(=O)(C/C(=C/CO)S(=O)(=O)c1ccccc1)c1ccccc1` has an EC50 of 2.21 µM.
With `Clc1ccc(OCc2nnc(SCc3nc4ccccc4[nH]3)n2Cc2ccco2)cc1` the EC50 was 36.4 µM (inactive).
With `CCN(CC)C(=O)Oc1ccc2c(=O)c(-c3ccccc3)coc2c1` the EC50 was > 95.1 µM (inactive).
